# Test results: patent US20080262021A1, “1H-Imidazoquinoline Derivatives as Prote In Kinase Inhibitors” (NOVARTIS AG, priority 2003, published 2008)
# What was measured:
# Assay type in all cases: biochemical
# S6K1 = target: T1, S6K1 (Homo sapiens, UniProt P23443, T412E); test: S6K1 kinase inhibition (S6K1ΔCT/T412E, TR-FRET); details: read-out: IC50 Range Class, inhibition of S6K1
# T1 construct: His (N); made in house; host or cells: Sf9 insect cells (baculovirus, pFastBacHT A), co-infected with GST-PDK1 virus
# Text: The DNA fragment encoding S6K1ΔCT/T412E is subcloned to the baculovirus donor vector pFastBacHT A to generate a recombinant baculovirus that expresses S6K1ΔCT/T412E. Transfer vectors for S6K1ΔCT/T412E are transfected into the DH10Bac cell line (GIBCO). After selection of white colonies, they are used for viral DNA (bacmid) preparation. Sf9 cells (American Type Culture Collection) cells are then transfected with the viral DNA using Cellfectin reagent. Virus-containing media is collected from the transfected cell culture and is used for infection to increase its titer. For large-scale protein expression, Sf9 cells are co-infected with S6K1ΔCT/T412E and GST-PDK1 virus-containing media with MOI of 2.25 and 1, respectively. After 3 days, the cells expressing the recombinant enzyme are resuspended in the culture medium with a sterilized cell scraper and harvested by centrifugation. The cells are resuspended in 5 volumes of cell pellet of Extraction Buffer (50 mM MOPS pH 7.0, containing 300 mM NaCl, 0.05% Tween-20, 10 mM sodium pyrophosphate, 50 mM β-glycerophosphate, 0.2 mM cantharidic acid and 1× complete-EDTA protease inhibitor cocktail) and then disrupted with 15 strokes of a Dounce homogenizer followed by sonication on ice. The homogenate is centrifuged at 4° C. for 60 minutes at 48,000×g. The supernatant is clarified with a 5 μm filter and subjected to purification with TALON Superflow Resin (Clontech). First, 1 mL of TALON resin per 5 mL of the supernatant was equilibrated with the Extraction Buffer and resuspended in the supernatant followed by gentle agitation for 20 minutes at RT. After centrifugation at 700×g for 5 minutes, supernatant is removed. The resin is washed twice by adding 10 bed volumes of the Extraction Buffer, agitating for 10 minutes at RT, centrifugating at 700×g for 5 minutes, and discarding the supernatant. The resin is then resuspended with the same volume of the Extraction Buffer and transferred to an disposable chromatography column. The packed column is washed once with 10 bed volumes of the Extraction Buffer and additionally with the same volume of Wash Buffer (5 mM imidazole in the Extraction Buffer). Then, the His-tagged S6K1ΔCT/T412E is eluted with four bed volumes of Elution Buffer (150 mM imidazole in the Extraction Buffer).
# Measure of enzyme activity: The kinase assay with purified S6K1ΔCT/T412E is performed with TR-FRET (Time-Resolved Fluorescene Resonance Energy Transfer) technology. First, ATP-dependent phosphorylation of the biotinylated substrate peptide corresponding to residues 229-242 of S6 ribosomal protein (Biot-AKRRRLSSLRASTS) is carried out for 1 hour at 37° C. in […] under humidified air. The kinase reaction mixture of the final volume of 9 μL contains 2.57 ng of purified S6K1ΔCT/T412E protein, 50 mM MOPS (pH 7.0), 0.1 mM EGTA, 0.01 mM Na3VO4, 0.05% Tween-20, 0.01% BSA, 1 mM DTT, 10 mM MgCl2, 3 μM ATP, 0.5 μM biotinylated substrate peptide, 1% of DMSO or the text compounds of the formula (I) at the required concentration in 1% DMSO. For measurement of background, 20 mM of EDTA is added to the reaction mixture. […] Phosphorylated peptide indicative of kinase activity is quantitated by exciting the sample at 330 nm and comparing donor emission at 615 nm and acceptor emission at 665 nm by 2101 EnVision HTS multilabel plate reader (Perkin Elmer). […]
# PKB = PKB (Homo sapiens, UniProt P31749); test: PKB kinase inhibition (PDK1-activated GST-PKB, 33P peptide assay); details: read-out: IC50 Range Class, inhibition of PKB
# Protocol: GST-PKB [100 ng, specific activity (SA): 0.2 nmole/mg/min.] is incubated for 30 minutes at room temperature (RT) with purified recombinant GST-PDK1 (1 ng, SA: 2 nmole/min./mg). The activation is performed as follows: 0.1 μg of GST-PDK1 (0.05 μL) and 10 μg of GST-PKB (0.45 μL) are mixed in a total volume of 0.75 μL containing 15 μM ATP, 3 mM MgCl2, 20 mM hepes (pH 7.6) for 30 minutes at RT. The reaction is subsequently stopped by adding 0.25 μL containing 30% gycerol (w/w) and 0.06 μL of 500 mM EDTA. 100-500 ng (0.01-0.05 μL) activated GST-PKB is incubated in a final volume of 30 μL with 10 μM of the RRPRTRSFS peptide, 10 mM Mg-acetate, 50 mM MOPS (PH 7.5), 1 mM DTT and 300 μg/mL BSA, 20 μM ATP (0.1 μCi γ-^33P-ATP). The reaction is carried out for 30 minutes at RT in the presence of either 1% DMSO or the text compound of the formula (I) at the required concentration in 1% DMSO. The reaction is terminated by the addition of 20 μL 125 mM EDTA. Thirty (30) μL of each sample is spotted onto P81 Whatman and the paper squares processed. See Ferrari and Thomas, Methods Enzymol, Vol. 200, pp. 159-169 (1991). IC50 values are calculated by linear regression analysis of the percentage inhibition of each compound in duplicate.
# RET = target: T2, RET (Homo sapiens, UniProt P07949); test: RET kinase inhibition (33P filter assay, GST-wtRET or GST-RET-Men2B); details: for IC50: read-out: IC50 Range Class, inhibition of RET
# T2 construct: fused on or other part: N-terminal GST tag (from vector pFB-GSTX3)
# Protocol: RET kinase inhibition is determined as follows: The baculovirus donor vector pFB-GSTX3 is used to generate a recombinant baculovirus that expresses the amino acid region 658-1072 (Swiss Prot No. Q9BTB0) of the intra-cytoplasmic kinase domain of human RET-Men2A which corresponds to the wild-type kinase domain of RET (wtRET) and RET-Men2B, which differs from the wtRET by the activating mutation in the activation loop M918T. The coding sequences for the cytoplasmic domain of wtRET and RET-Men2B are amplified by PCR from the plasmids pBABEpuro RET-Men2A and pBABEpuro RET-Men2B, respectively which are received from Dr. James Fagin, College of Medicine, University of Cincinnati. The amplified DNA fragments and the pFB-GSTX3 vector are made compatible for ligation by digestion with SaII and KpnI. Ligation of these DNA fragments results in the baculovirus donor plasmid pFB-GX3-RET-Men2A and pFB-GX3-RET-Men2B, respectively.
# Production of virus: Transfer vectors containing the kinase domains are transfected into the DH10Bac cell line (GIBCO) and plated on selective agar plates. Colonies without insertion of the fusion sequence into the viral genome (carried by the bacteria) are blue. Single, white colonies are picked and viral DNA (bacmid) isolated from the bacteria by standard plasmid purification procedures. Sf9 cells or Sf21 (American Type Culture Collection) cells are then transfected in 25 cm^2 flasks with the viral DNA using Cellfectin reagent.
# Determination of small scale protein expression in Sf9 cells: Virus-containing media is collected from the transfected cell culture and used for Infection to increase its titer. Virus-containing media obtained after two rounds of infection is used for large-scale protein expression. For large-scale protein expression 100 cm^2 round tissue culture plates are seeded with 5×10^7 cells/plate and infected with 1 mL of virus-containing media (approximately 5 MOls). After 3 days, the cells are scraped off the plate and centrifuged at 500 rpm for 5 minutes. Cell pellets from 10-20, 100 cm^2 plates, are re-suspended in 50 mL of ice-cold lysis buffer (25 mM tris-HCl, pH 7.5, 2 mM EDTA, 1% NP-40, 1 mM DTT, 1 mM P MSF). The cells are stirred on ice for 15 minutes and then centrifuged at 5,000 rpms for 20 minutes.
# Purffication of GST-tagged proteins: The centrifuged cell lysate is loaded onto a 2 mL glutathione-sepharose column (Pharmacia) and washed 3× with 10 mL of 25 mM tris-HCl, pH 7.5, 2 mM EDTA, 1 mM DTT, 200 mM NaCl. The GST-tagged proteins are then eluted by 10 applications (1 mL each) of 25 mM tris-HCl, pH 7.5, 10 mM reduced-glutathione, 100 mM NaCl, 1 mM DTT, 10% glycerol and stored at −70° C.
# Measure of enzyme activity: Tyrosine protein kinase assays with either purified GST-wtRET or GST-RET-Men2B protein are carried out in a final volume of 30 μL containing 15 ng of either GST-wtRET or GST-RET-Men2B protein, 20 mM tris-HCl, pH 7.5, 1 mM MnCl2, 10 mM MgCl2, 1 mM DTT, 3 μg/mL poly(Glu, Tyr) 4:1, 1% dimethyl sulfoxide (DMSO), 2.0 μM ATP (γ-[^33P]-ATP 0.1 μCi). The activity is assayed in the presence or absence of inhibitors, by measuring the Incorporation of ^33P from [γ^33P] ATP into poly(Glu, Tyr) 4:1. The assay is carried out in 96-well plates at ambient temperature for 15 minutes under conditions described below and terminated by the addition of 20 μL of 125 mM EDTA. […] Membranes are counted after drying at ambient temperature, mounting in Packard TopCount 96-well frame, and addition of 10 μL/well of Microscint™ (Packard). […]
# T2 sequence (P07949 1-1072 isoform P07949-2): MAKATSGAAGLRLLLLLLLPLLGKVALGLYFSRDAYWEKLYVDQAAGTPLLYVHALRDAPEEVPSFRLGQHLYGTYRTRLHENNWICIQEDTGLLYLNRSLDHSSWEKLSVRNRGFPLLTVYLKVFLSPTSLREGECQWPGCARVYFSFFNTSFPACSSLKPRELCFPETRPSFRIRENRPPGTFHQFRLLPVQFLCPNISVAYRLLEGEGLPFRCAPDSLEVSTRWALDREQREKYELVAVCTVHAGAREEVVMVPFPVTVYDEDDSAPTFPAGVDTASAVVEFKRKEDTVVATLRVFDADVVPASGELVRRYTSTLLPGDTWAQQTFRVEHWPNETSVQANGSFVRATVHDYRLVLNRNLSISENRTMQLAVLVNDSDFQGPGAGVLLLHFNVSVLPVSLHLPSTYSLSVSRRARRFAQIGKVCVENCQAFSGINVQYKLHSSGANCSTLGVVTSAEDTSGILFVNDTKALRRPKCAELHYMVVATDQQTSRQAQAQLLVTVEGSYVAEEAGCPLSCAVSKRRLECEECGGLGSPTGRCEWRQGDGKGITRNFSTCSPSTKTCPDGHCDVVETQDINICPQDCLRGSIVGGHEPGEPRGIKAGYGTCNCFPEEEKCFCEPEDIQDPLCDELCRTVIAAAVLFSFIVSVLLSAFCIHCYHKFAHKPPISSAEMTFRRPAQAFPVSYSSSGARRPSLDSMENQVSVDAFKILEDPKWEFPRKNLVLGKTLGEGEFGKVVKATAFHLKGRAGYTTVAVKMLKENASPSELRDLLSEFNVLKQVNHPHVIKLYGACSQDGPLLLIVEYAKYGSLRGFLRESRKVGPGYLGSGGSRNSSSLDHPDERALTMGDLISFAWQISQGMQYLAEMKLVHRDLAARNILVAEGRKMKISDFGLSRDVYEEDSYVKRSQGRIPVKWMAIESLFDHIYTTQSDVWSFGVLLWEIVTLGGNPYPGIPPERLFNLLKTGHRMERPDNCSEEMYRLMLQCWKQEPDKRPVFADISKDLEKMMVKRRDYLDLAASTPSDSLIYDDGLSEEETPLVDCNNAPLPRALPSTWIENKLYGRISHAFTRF
# Sequence of PKB (P31749 whole entry): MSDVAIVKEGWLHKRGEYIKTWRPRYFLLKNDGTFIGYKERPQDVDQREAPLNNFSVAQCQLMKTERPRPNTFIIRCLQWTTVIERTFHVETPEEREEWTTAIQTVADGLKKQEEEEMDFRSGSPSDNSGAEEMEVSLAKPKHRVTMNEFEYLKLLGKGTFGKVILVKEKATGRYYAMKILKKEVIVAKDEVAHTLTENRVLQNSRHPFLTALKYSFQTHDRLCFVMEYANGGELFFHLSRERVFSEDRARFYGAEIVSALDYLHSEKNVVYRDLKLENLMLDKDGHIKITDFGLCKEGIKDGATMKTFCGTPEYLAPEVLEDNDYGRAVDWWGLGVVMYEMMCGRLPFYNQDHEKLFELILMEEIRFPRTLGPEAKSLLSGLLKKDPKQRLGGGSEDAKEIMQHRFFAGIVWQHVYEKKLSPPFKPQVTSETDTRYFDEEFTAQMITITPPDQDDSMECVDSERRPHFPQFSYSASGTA
# T1 sequence (P23443 1-421 T412E): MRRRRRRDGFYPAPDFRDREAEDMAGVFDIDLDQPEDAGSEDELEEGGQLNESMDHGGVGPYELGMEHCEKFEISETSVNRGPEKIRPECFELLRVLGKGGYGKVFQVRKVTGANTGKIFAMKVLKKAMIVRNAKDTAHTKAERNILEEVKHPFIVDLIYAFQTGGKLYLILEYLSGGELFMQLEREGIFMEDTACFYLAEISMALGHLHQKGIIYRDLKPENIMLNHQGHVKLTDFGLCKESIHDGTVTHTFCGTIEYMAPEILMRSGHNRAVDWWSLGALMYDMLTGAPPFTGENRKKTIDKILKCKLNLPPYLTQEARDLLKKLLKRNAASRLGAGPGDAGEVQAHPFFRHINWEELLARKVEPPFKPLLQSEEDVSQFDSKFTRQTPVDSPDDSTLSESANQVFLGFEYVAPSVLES
IC50 (PKB),IC50 (RET),also measured,SMILES
,,IC50 (S6K1): ≤ 500 nM,"Cc1cc(CCN)ccc1-n1cnc2cnc3ccc(-c4ccc5[nH]ccc5c4)cc3c21 [Example 22, 2-{4-[8-(1H-indol-5-yl)-Imidazo[4,5-c]quinolin-1-yl]-3-methyl-phenyl}-ethylamine]"
,,IC50 (S6K1): ≤ 500 nM,"NCCc1ccc(-n2cnc3cnc4ccc(-c5ccc(O)cc5)cc4c32)c(C(F)(F)F)c1 [Example 30, 4-{1-[4-(2-Amino-ethyl)-2-trifluoromethyl-phenyl]-1H-imidazo[4,5-c]quinolin-8-yl}-phenol]"
≤ 500 nM,,,"NCCc1ccc(-n2cnc3cnc4cc(F)c(-c5cccs5)cc4c32)cc1 [Example 61, 2-[4-(7-Fluoro-8-thiophen-2-yl-imidazo[4,5-c]quinolin-1-yl)-phenyl]-ethylamine]"
≤ 500 nM,,,"NCCc1ccc(-n2cnc3cnc4cc(F)c(-c5ccc6[nH]ccc6c5)cc4c32)cc1 [Example 64, 2-{4-[7-Fluoro-8-(1H-indol-5-yl)-imidazo[4,5-c]quinolin-1-yl]-phenyl}-ethylamine]"
≤ 500 nM,,,"NCCCc1ccc(-n2cnc3cnc4cc(F)c(-c5ccsc5)cc4c32)cc1 [Example 74, 3-[4-(7-Fluoro-8-thiophen-3-yl-imidazo[4,5-c]quinolin-1-yl)-phenyl]-propylamine]"
,,IC50 (S6K1): ≤ 500 nM,"NCCc1ccc(-n2cnc3cnc4cc(F)c(-c5ccc6[nH]ccc6c5)cc4c32)c(Cl)c1 [Example 83, 2-{3-Chloro-4-[7-fluoro-8-(1H-indol-5-yl)-imidazo[4,5-c]quinolin-1-yl]-phenyl}-ethylamine]"
≤ 500 nM,,,"NCCc1ccc(-n2cnc3cnc4cc(Cl)c(-c5ccsc5)cc4c32)cc1 [Example 90, 2-[4-(7-Chloro-8-thiophen-3-yl-imidazo[4,5-c]quinolin-1-yl)-phenyl]-ethylamine]"
,500 to 1000 nM,,"COc1ccc(OC)c(-c2ccc3ncc4ncn(-c5ccccc5F)c4c3c2)c1 [Example 119, 8-(2,5-Dimethoxy-phenyl)-1-(2-fluoro-phenyl)-1H-imidazo[4,5-c]quinoline]"
,,"IC50 Range Class, inhibition of RET (RET): B/A","Fc1ccccc1-n1cnc2cnc3ccc(-c4ccncc4)cc3c21 [Example 125, 1-(2-Fluoro-phenyl)-8-pyridin-4-yl-1H-imidazo[4,5-c]quinoline]"
,≤ 500 nM,,"Oc1ccc(-c2ccc3ncc4ncn(-c5ccccc5F)c4c3c2)cc1 [Example 127, 4-[1-(2-Fluoro-phenyl)-1H-imidazo[4,5-c]quinolin-8-yl]-phenol]"
,≤ 500 nM,,"CN(C)Cc1cccc(-c2ccc3ncc4ncn(-c5ccccc5F)c4c3c2)c1 [Example 129, {3-[1-(2-Fluoro-phenyl)-1H-imidazo[4,5-c]quinolin-8-yl]-benzyl}-dimethyl-amine]"
,500 to 1000 nM,,"c1ccc(-n2cnc3cnc4ccc(-c5cccc(N6CCNCC6)c5)cc4c32)cc1 [Example 134, 1-Phenyl-8-(3-piperazin-1-yl-phenyl)-1H-imidazo[4,5-c]quinoline]"
